Assay results reported in US6265418A, “N-acylamino acid amide compounds and intermediates for preparation thereof” (Ube Industries, Ltd., priority 1997, dated 2001).
Where two headings read alike, the source gives them in different places.

How the values were obtained:
[1] = system: platelet aggregation induced by ADP; assay: Ex vivo ADP induced-platelet aggregation inhibiting activity after oral administration to monkeys; assay type: in vivo; settings: cynomolgus monkeys, ADP 20 μM
From the text: (§1) Ex Vivo ADP Induced-platelet Aggregation Inhibiting Activity
As a test animal, 2 to 3 monkeys (cynomolgus monkeys) born in China were used as one group.
(§2) Test compounds were suspended in a dimethylsulfoxide: 0.5% aqueous sodium carboxymethylcellulose solution (=1:99) and orally administered. To the animals for control group, a dimethylsulfoxide: 0.5% aqueous sodium carboxymethylcellulose solution (=1:99) containing no test compound was orally administered.
(§3) With regard to the respective groups, 5 ml of blood was each collected from femoral vein at the predetermined times before and after administration of the test compound by using a syringe to which 3.8% of sodium citrate was added. The resulting citrate-added blood was centrifuged at 80×g (=700 rpm) for 10 minutes, and then, the supernatant was fractionated as platelet rich plasma (PRP). The under layer was further centrifuged at 2000×g (3200 rpm) for 10 minutes and the supernatant was fractionated as platelet-poor plasma (PPP) and used for ADP aggregation (coagulation) measurement.
(§4) PRP was diluted by PPP to adjust the number of platelet to 30 to 40×10^4 /μL, and platelet aggregation induced by ADP was measured by using a nephelometric platelet aggregation meter (available from NBS Co., Hematracer 801). First, 190 μL of PRP was placed in a glass cuvette for exclusive use and pre-incubated while stirring (1000 ppm) at 37° C. for 5 minutes. Thereafter, 10 μL (final concentration 20 μM) of an ADP solution was added thereto to induce platelet aggregation. Change in transmittance caused by platelet aggregation was recorded for 3 minutes after addition of ADP.
(§5) Transmittances of PRP and PPP were made 0 and 100%, respectively, and the maximum transmittance after adding ADP was made the maximum aggregation ratio.
(§6) The platelet aggregation inhibiting ratio was shown in terms of a percentage of the maximum aggregation ratio when the test compound was added divided by the maximum aggregation ratio when the solvent for preparation was added.

[2] = system: platelet aggregation induced by ADP; assay: ADP (adenosine diphosphate) induced-platelet aggregation inhibiting activity (in vitro, platelet-rich plasma); assay type: cell-based, human (healthy volunteer); settings: ADP final concentration 10 μM, 37° C., pre-incubation 5 minutes, prime (') = converted into carboxylic acid compound before test, read-out: in vitro Platelet aggregation inhibition activity IC50
Experimental: ADP (adenosine diphosphate) induced-platelet aggregation inhibiting activity
(1) Preparation Method of Platelet-rich Plasma
By using 0.1 volume of 3.8% sodium citrate as an anticoagulant, citrate-added blood collected from an elbow vein of a healthy volunteer was centrifuged at 500×g (=1600 rpm) for 3 minutes and the supernatant was fractionated as platelet-rich plasma (PRP). The under layer was further centrifuged at 1800×g (3200 rpm) for 15 minutes and the supernatant was fractionated as platelet-poor blood plasma (PPP) and used for ADP aggregation (coagulation) measurement.
(2) Measurement Method of ADP-induced Platelet Aggregation
PRP obtained as mentioned above was diluted by the platelet-poor plasma (PPP) to adjust the number of platelet to 30 to 40×10^4 /μL, and platelet aggregation induced by ADP was measured by using an aggrigometer (available from NBS Co., Hematracer Va.). First, 185 μL of PRP was placed in a glass cuvette for exclusive use, 5 μL of a test compound solution or a solvent (control) for preparing test compound was added thereto, and the mixture was pre-incubated while stirring (1000 ppm) at 37° C. for 5 minutes. Thereafter, 10 μL (final concentration 10 μM) of an ADP solution was added thereto to induce platelet aggregation. Change in transmittance caused by platelet aggregation was recorded for 3 minutes after addition of ADP.
Transmittances of PRP and PPP were made 0 and 100%, respectively, and the maximum transmittance after adding ADP was made the maximum aggregation ratio. The maximum aggregation ratio when the test compound was added divided by that ratio when the solvent for preparation was added was shown in terms of a percentage, and a 50% inhibiting concentration (IC50) was calculated.
Incidentally, when the test compound has a protected carboxyl group, the sample was applied to the test after carrying out the following deprotection treatment. First, the test compound was dissolved in ethanol, and hydrolyzed (at room temperature for 2 hours) by adding an equal volume of a 0.1 N aqueous sodium hydroxide solution. Then, the solution was neutralized by adding a 0.1 N aqueous hydrochloric acid solution, and the resulting solution was diluted by using a preparation solvent (composition: ethanol/0.1 N aqueous sodium hydroxide solution/0.1 N aqueous hydrochloric acid solution=1/1/1) to a predetermined concentration to make a test compound solution.

[3] = system: platelet aggregation induced by ADP and epinephrine; assay: Ex vivo ADP induced-platelet aggregation inhibiting activity after oral administration to dogs; assay type: in vivo; settings: beagle dogs, ADP 10 μM + epinephrine 1 μM
Experimental: as §1
As a test animal, 2 to 3 beagle dogs were used as one group.
as §2
as §3, with “cervical” for “femoral”, “platelet-rich” for “platelet rich”
as §4, with “an aggrigometer” for “a nephelometric platelet aggregation meter”, “μL” for “μL (final concentration 20 μM)”, “solution (final concentration 10 μM) and an epinephrine solution (final concentration 1 μM)” for “solution”
as §5, §6

[4] = system: platelet aggregation; settings: reported in Thrombosys, Res., 56, 6, 687 (1989); cited from earlier work
[5] = system: fibrinogen receptor; settings: reported in Thrombosys, Res., 56, 6, 687 (1989); cited from earlier work

Compound: CCOC(=O)Cn1cc2c(n1)CCN(C(=O)[C@H](Cc1ccc([N+](=O)[O-])cc1)NC(=O)c1ccc(C(=N)N)cc1)C2 [Example I-76, Ethyl 5-[N-(4-amidinobenzoyl)-L-4-nitrophenylalanyl]-4,5,6,7-tetrahydropyrazolo[4,3-c]pyridin-2-acetate.trifluoroacetate]
- platelet aggregation inhibiting activities even in oral administration [1]: excellent platelet aggregation inhibiting activities
- sustained activity [1]: excellent sustained activity

Compound: N=C(N)c1ccc(C(=O)N[C@@H](Cc2ccc([N+](=O)[O-])cc2)C(=O)N2CCc3sc(CC(=O)O)cc3C2)cc1 [Example I-5, 5-[N-(4-amidinobenzoyl)-L-4-nitrophenylalanyl]-4,5,6,7-tetrahydrothieno[3,2-c]pyridin-2-acetic acid.trifluoroacetate]
- IC50 ([2]; Homo sapiens, Platelet): 30 nM

Compound: C[C@H](NC(=O)c1ccc(C(=N)N)cc1)C(=O)N1CCc2nn(CC(=O)O)cc2C1 [Example I-126, 5-[N-(4-amidinobenzoyl)-L-alanyl]-4,5,6,7-tetrahydropyrazolo[4,3-c]pyridin-2-acetic acid.trifluoroacetate]
- IC50 ([2]; Homo sapiens, Platelet): 80 nM

Compound: CCOC(=O)Cn1cc2c(n1)CCN(C(=O)[C@H](Cc1ccc([N+](=O)[O-])cc1)NC(=O)c1ccc(C(=N)NC(=O)Oc3ccccc3)cc1)C2 [Example I-115, Ethyl 5-[N-[4-(N-phenoxycarbonylamidino)benzoyl]-L-4-nitrophenylalanyl)-4,5,6,7-tetrahydropyrazolo[4,3-c]pyridin-2-acetate]
- ex vivo Platelet aggregation inhibiting ratio ([3]; 0.3 mg/kg p.o., 1 hr): 35%
- ex vivo Platelet aggregation inhibiting ratio ([3]; 0.3 mg/kg p.o., 4 hr): 43%
- ex vivo Platelet aggregation inhibiting ratio ([3]; 0.3 mg/kg p.o., 8 hr): 22%

Compound: CCOC(=O)Cn1cc2c(n1)CCN(C(=O)[C@H](Cc1ccc([N+](=O)[O-])cc1)NC(=O)c1ccc(C(=N)NO)cc1)C2 [Example I-85, Ethyl 5-[N-[4-(N-hydroxyamidino)benzoyl]-L-4-nitrophenylalanyl]-4,5,6,7-tetrahydropyrazolo[4,3-c]pyridin-2-acetate]
- ex vivo Platelet aggregation inhibiting ratio ([3]; 0.3 mg/kg p.o., 1 hr): 61%
- ex vivo Platelet aggregation inhibiting ratio ([3]; 0.3 mg/kg p.o., 4 hr): 94%
- ex vivo Platelet aggregation inhibiting ratio ([3]; 0.3 mg/kg p.o., 8 hr): 41%

Compound: N=C(N)c1ccc(C(=O)N[C@@H](Cc2ccc([N+](=O)[O-])cc2)C(=O)N2C3CCC2c2cn(CC(=O)O)nc2C3)cc1 (stereo partly drawn) [Example I-91, 5-[N-(4-amidinobenzoyl)-L-4-nitrophenylalanyl]-4,6-ethano-4,5,6,7-tetrahydropyrazolo[4,3-c]pyridin-2-acetic acid]
- IC50 ([2]; Homo sapiens, Platelet): 50 nM

Compound: N=C(N)c1ccc(C(=O)N[C@@H](Cc2ccc(OCc3ccccc3)cc2)C(=O)N2CCc3nn(CC(=O)O)cc3C2)cc1 [Example I-138, 5-[N-(4-amidinobenzoyl)-L-O-benzyltyrosyl)-4,5,6,7-tetrahydropyrazolo[4,3-c]pyridin-2-acetic acid.trifluoroacetate]
- IC50 ([2]; Homo sapiens, Platelet): 60 nM

Compound: CN(C(=O)c1ccc(C(=N)N)cc1)[C@@H](Cc1ccc([N+](=O)[O-])cc1)C(=O)N1CCc2nn(CC(=O)O)cc2C1 [Example I-136, 5-[N-(4-amidinobenzoyl)-N-methyl-L-4-nitrophenylalanyl)-4,5,6,7-tetrahydropyrazolo[4,3-c]pyridin-2-acetic acid.trifluoroacetate]
- IC50 ([2]; Homo sapiens, Platelet): 60 nM

Compound: CCOC(=O)Cn1cc2c(n1)CCN(C(=O)[C@H](Cc1ccc([N+](=O)[O-])cc1)NC(=O)c1ccc(C(=N)NC(=O)OCC)cc1)C2 [Example I-77, Ethyl 5-[N-[4-(N-ethoxycarbonylamidino)benzoyl]-L-4-nitrophenylalanyl]-4,5,6,7-tetrahydropyrazolo[4,3-c]pyridin-2-acetate]
- ex vivo Platelet aggregation inhibiting ratio ([3]; 1 mg/kg p.o., 1 hr): 60%
- ex vivo Platelet aggregation inhibiting ratio ([3]; 1 mg/kg p.o., 4 hr): 85%
- ex vivo Platelet aggregation inhibiting ratio ([3]; 1 mg/kg p.o., 8 hr): 63%
- platelet aggregation inhibiting activities even in oral administration [1]: excellent platelet aggregation inhibiting activities
- sustained activity [1]: excellent sustained activity

Compound: N=C(N)c1ccc(C(=O)N[C@@H](Cc2ccc([N+](=O)[O-])cc2)C(=O)N2CCc3nn(CC(=O)O)cc3C2)cc1 [Example I-79, 5-[N-(4-amidinobenzoyl)-L-4-nitrophenylalanyl]-4,5,6,7-tetrahydropyrazolo[4,3-c]pyridin-2-acetic acid.trifluoroacetate]
- IC50 ([2]; Homo sapiens, Platelet): 20 nM

Compound: N=C(N)c1ccc(C(=O)N[C@@H](Cc2ccccc2)C(=O)N2CCc3nn(CC(=O)O)cc3C2)cc1 [Example I-128, 5-[N-(4-amidinobenzoyl)-L-phenylalanyl]-4,5,6,7-tetrahydropyrazolo[4,3-c]pyridin-2-acetic acid.trifluoroacetate]
- IC50 ([2]; Homo sapiens, Platelet): 50 nM

Compound: Arg-Gly-Asp-Ser (RGDS; printed: Arg-Gly-Asp-Ser) [peptide derivative such as Arg-Gly-Asp-Ser (hereinafter abbreviated to as RGDS)]
- platelet aggregation inhibiting action [4]: platelet aggregation inhibiting action
- IC50 [2]: 4000 nM
- antagonistic action against a fibrinogen receptor [5]: antagonistic action against a fibrinogen receptor
